Reference: article PMC12040169 (PLOS Biology, 2025)

Test: in vitro
Conditions: human, hela cells, % viability

SMILES	viability at 28.5 h, 10 µM [%]
Cc1nc2c(c(=O)[nH]1)CN(CC1CCCCC1)CC2 [CBK283947]	86.7
Cc1nc2c(c(=O)[nH]1)CN(Cc1ccccc1F)CC2 [CBK283948]	89.3
Cc1nc2c(c(=O)[nH]1)CN(Cc1cccc(Oc3ccccc3)c1)CC2 [CBK283951]	104
Cc1nc2c(c(=O)[nH]1)CN(Cc1ccc(-c3ccccc3)cc1)CC2 [CBK283952]	99
Cc1c(C(=O)N2CCC(C(=O)c3cccnc3)CC2)oc2ccccc12 [CBK283954]	88.9
C#CCNC(=O)C1CCN(c2nc3ccccc3n2C)CC1 [CBK283956]	89.7
Cn1c(N2CCC(C(=O)NCC3CC3)CC2)nc2ccccc21 [CBK283957]	91.6
O=C(CN1C(=O)N2CCN=C2c2ccccc21)NC1CC1 [CBK283958]	93.1
O=C(CN1C(=O)N2CCN=C2c2ccccc21)NC1CCCC1 [CBK283959]	100
O=C1NC2(CCN(C(=O)C3CCCC3)CC2)Nc2ccccc21 [CBK283962]	94.9
COCCn1c(=O)n(Cc2ccccc2)c2cccnc21 [CBK283964]	91
O=c1n(Cc2ccncc2)nc(C(F)(F)F)c2cccn12 [CBK283966]	87
Cc1nc2c(c(=O)[nH]1)CCN(Cc1ccc(Cl)c(Cl)c1)C2 [CBK283969]	81.6
CC1CCCCC1NC(=O)c1ncoc1-c1cccs1 (stereo not shown) [CBK283973]	84.8
CN(C)C(=O)CN1CC[C@@H](c2ccccc2)[C@H](O)C1 [CBK283979]	83
Cc1cc2c(o1)CCc1sc(N(C)C(=O)C3CC(=O)N(C)C3)nc1-2 (stereo not shown) [CBK283980]	75.6
O=C1CCCN1CCC(=O)N1CCCC1c1nc2ccccc2[nH]1 (stereo not shown) [CBK283981]	84.2
Cc1nc2c(c(=O)[nH]1)CN(Cc1c(C)oc3ccccc13)CC2 [CBK283984]	94.8
Cn1c(N2CCCC(C(=O)NCC3CC3)C2)nc2ccccc21 (stereo not shown) [CBK283987]	92.6
O=c1[nH]nc2c3ccc(Cl)cc3ncn12 [CBK283988]	62.3
Cc1nc2c(c(=O)[nH]1)CCN(Cc1cccc(Oc3ccccc3)c1)C2 [CBK283989]	81.9
C=CCn1c(C)c(CN2CCc3c(nc(C)[nH]c3=O)C2)c2ccccc21 [CBK283990]	88.6
Cc1nc2c(c(=O)[nH]1)CCN(Cc1c(C)oc3ccccc13)C2 [CBK283994]	87.8

SMILES	viability at 28.5 h, 10 µM [%]
Cc1ccc2[nH]c(C3CCCCN3C(=O)c3cscn3)nc2c1 (stereo not shown) [CBK283999]	96.6
Cc1ccc2[nH]c(C3CCCCN3C(=O)c3ccncc3)nc2c1 (stereo not shown) [CBK284000]	103
c1coc(CN2CCC(c3ccc4c(c3)OCO4)CC2)c1 [CBK284001]	90.3
CN(C)CCn1nc(-c2cccc(-n3cccc3)c2)oc1=O [CBK284002]	94.2
O=C(CN1CCCC1)N1CCCC1c1nc2ccccc2[nH]1 (stereo not shown) [CBK284003]	89.4
Cc1ccc(CN2Cc3cc4ccccc4nc3OC(C)C2=O)o1 (stereo not shown) [CBK284004]	90.6
CC(C)N(C(=O)CN1C(=O)N2CCN=C2c2ccccc21)C(C)C [CBK284005]	87
O=C(c1cccs1)N1CCCC1c1nc2ccccc2[nH]1 (stereo not shown) [CBK284006]	81.8
COC1CCCC(C(=O)N2CCCC2c2nc3ccccc3[nH]2)C1 (stereo not shown) [CBK284007]	101
CCn1nc2c3ccccc3nc(C3CC3)n2c1=O [CBK284008]	68.8
Cc1nc2c(c(=O)[nH]1)CN(Cc1ccc(F)cc1)CC2 [CBK284009]	86.9
CC(C)N(C(=O)N1CCC2(CC1)CC(=O)c1ccccc1O2)C(C)C [CBK284010]	90.7
Cc1ccc(CCC(=O)N2CCCC2c2nc3ccccc3[nH]2)o1 (stereo not shown) [CBK284012]	93.3
Cc1noc(C)c1C(=O)NC1(c2ccc(F)cc2)CCCC1 [CBK284013]	93.4
Cn1c(C(=O)OCC(=O)NC(C)(C)C)cc2occc21 [CBK284015]	109
CC1CCN(CC(=O)NC2CCN(C(C)c3ccccc3)CC2)CC1 (stereo not shown) [CBK284017]	101
O=C1C2CCCN2S(=O)(=O)c2ccccc2N1Cc1ccccc1 (stereo not shown) [CBK284018]	88.6
Cn1c(=O)n(CC(=O)OCc2ccccc2)c2cccnc21 [CBK284019]	91.1
CCCNC(=O)Cn1nc(C)n2c(cc3sccc32)c1=O [CBK284020]	102
Cc1nn(CC(=O)NC(C)(C)C)c(=O)c2cc3sccc3n12 [CBK284021]	80.9
Cc1nn(CC(=O)N2CCCC2)c(=O)c2cc3sccc3n12 [CBK284024]	95.2
Cc1nn(CC(=O)NC(C)C)c(=O)c2cc3ccsc3n12 [CBK284027]	83.9
CCc1nn(CC(=O)N2CCCC2)c(=O)c2cc3sccc3n12 [CBK284028]	85.8

SMILES	viability at 28.5 h, 10 µM [%]
CCCNC(=O)Cn1nc(CC)n2c(cc3sccc32)c1=O [CBK284030]	89.3
CC1CC(C)CN(C(=O)CN2C3CCC2CC(O)(c2ccco2)C3)C1 (stereo not shown) [CBK284032]	92.5
O=C(Cc1ccc(F)cc1)N1C2CCC1CC(O)(c1ccco1)C2 (stereo not shown) [CBK284033]	86.4
CC1CCC(NC(=O)CN2C3CCC2CC(O)(c2ccco2)C3)CC1 (stereo not shown) [CBK284036]	91
O=C(C1CC1)N1CCC(Cn2nc(-c3cccs3)ccc2=O)CC1 [CBK284039]	101
O=C(CN1C2CCC1CC(O)(c1ccco1)C2)N1CCCC1 (stereo not shown) [CBK284042]	88.7
CC1CCCC(C)N1C(=O)CN1C2CCC1CC(O)(c1ccco1)C2 (stereo not shown) [CBK284043]	85.4
CCN(CC)C(=O)Cn1nc(C)n2c(cc3sccc32)c1=O [CBK284044]	88.7
Cc1nn(CC(=O)NC2CC2)c(=O)c2cc3sccc3n12 [CBK284047]	94.9
Cc1nn(CC(=O)NC(C)C)c(=O)c2cc3sccc3n12 [CBK284048]	104
Cn1ccnc1C1(O)CC2CCC(C1)N2C(=O)C1CCCC1 (stereo not shown) [CBK284052]	86.4
CCc1nn(CC(=O)N(CC)CC)c(=O)c2cc3sccc3n12 [CBK284054]	77.8
CCc1nn(CC(=O)NC(C)(C)C)c(=O)c2cc3sccc3n12 [CBK284056]	73.8
Cc1nn(CC(=O)OC2CCCCC2)c(=O)c2cc3ccsc3n12 [CBK284058]	82.5
Cc1nn(Cc2ccc(F)cc2)c(=O)c2cc3sccc3n12 [CBK284059]	72.7
Cc1nn(CC(=O)N2CCCCCC2)c(=O)c2cc3ccsc3n12 [CBK284060]	84.8
CCCNC(=O)Cn1nc(C)n2c(cc3ccsc32)c1=O [CBK284061]	78.2
Cc1cc2c(cc3c(=O)n(CC(=O)N4CCCC4)nc(C)n32)s1 [CBK284065]	92.4
CCCNC(=O)Cn1nc(C)n2c(cc3sc(C)cc32)c1=O [CBK284068]	86.1
Cc1cc2c(cc3c(=O)n(CC(=O)NC(C)(C)C)nc(C)n32)s1 [CBK284070]	84.1
Cc1cc2c(cc3c(=O)n(CC(=O)NC4CCCC4)nc(C)n32)s1 [CBK284072]	96.9
